In brackets after ≈: the same amount, converted by molar mass. Activity calls are given as the source filed them. No cut-off for these calls is given here.
Columns and labels:
[1] = system: Staphylococcus epidermidis; assay: Antibacterial activity against Staphylococcus epidermidis by broth microdilution method; assay type: functional
Influenza A virus [2] = assay: Antiviral activity against Influenza A virus H3N2 assessed as cell viability by cell based MTS assay; assay type: functional, organism-based
Influenza B virus [3] = assay: Antiviral activity against influenza B virus assessed as cell viability by cell based MTS assay; assay type: functional, organism-based
[4] = system: Staphylococcus epidermidis; assay: Antibacterial activity against biofilm positive Staphylococcus epidermidis ATCC 35984; assay type: functional
Bacillus subtilis = assay: Antibacterial activity against Bacillus subtilis ATCC 6633 by broth microdilution method; assay type: functional
Influenza B virus [5] = assay: Antiviral activity against influenza B virus assessed as inhibition of viral induced cytopathic effect; assay type: functional, organism-based
Influenza A virus [6] = assay: Antiviral activity against Influenza A virus H3N2 assessed as inhibition of viral induced cytopathic effect; assay type: functional, organism-based
Staphylococcus aureus [7] = assay: Antibacterial activity against methicillin-[…] Staphylococcus aureus ATCC 33591 by broth microdilution method; assay type: functional
Influenza A virus [8] = assay: Antiviral activity against influenza A virus H1N1 assessed as inhibition of viral induced cytopathic effect; assay type: functional, organism-based
Enterococcus faecalis [9] = assay: Antibacterial activity against vancomycin and teicoplanin-sensitive Enterococcus faecalis ATCC 29212 by broth microdilution method; assay type: functional
Influenza A virus [10] = assay: Antiviral activity against influenza A virus H1N1 assessed as cell viability by cell based MTS assay; assay type: functional, organism-based
Staphylococcus aureus [11] = assay: Antibacterial activity against methicillin-[…] Staphylococcus aureus ATCC 29213 by broth microdilution method; assay type: functional
Enterococcus faecalis [12] = assay: Antibacterial activity against vancomycin-resistant and teicoplanin-sensitive Enterococcus faecalis ATCC 5129 expressing VanB gene by broth microdilution method; assay type: functional
Enterococcus faecalis [13] = assay: Antibacterial activity against vancomycin and teicoplanin-resistant Enterococcus faecalis 15376 expressing VanA gene by broth microdilution method; assay type: functional
Platelet = assay: Inhibition of ristocetin-induced platelet aggregation at 0.1 mg/ml; assay type: functional, cell-based

Row | Compound | MBC [1] | MIC [1] | EC50 (Influenza A virus [2]) | EC50 (Influenza B virus [3]) | MBC [4] | MIC [4] | MBC (Bacillus subtilis) | MIC (Bacillus subtilis) | EC50 (Influenza B virus [5]) | EC50 (Influenza A virus [6]) | MBC (Staphylococcus aureus [7]) | MIC (Staphylococcus aureus [7]) | EC50 (Influenza A virus [8]) | MBC (Enterococcus faecalis [9]) | MIC (Enterococcus faecalis [9]) | EC50 (Influenza A virus [10]) | MIC (Staphylococcus aureus [11]) | MBC (Enterococcus faecalis [12]) | MIC (Enterococcus faecalis [12]) | MBC (Enterococcus faecalis [13]) | further results
1 | COC(=O)[C@@H]1NC(=O)[C@H]2NC(=O)[C@H](NC(=O)[C@@H]3NC(=O)[C@H]4NC(=O)[C@H](NC(=O)[C@H](n5cc(CO[C@@H]6O[C@@H](C)[C@H](OC(C)=O)[C@@H](OC(C)=O)[C@H]6OC(C)=O)nn5)c5ccc(O)c(c5)Oc5cc4cc(O)c5C)[C@H](O)c4ccc(cc4)Oc4cc3cc(c4O)Oc3ccc(cc3)[C@H]2O)c2ccc(O)c(c2)-c2c(O)cc(O)cc21 | 8 µg/mL (≈ 5.23 µM) | 4 µg/mL (≈ 2.62 µM) | > 100 µM | > 100 µM | 4 µg/mL (≈ 2.62 µM) | 4 µg/mL (≈ 2.62 µM) | 32 µg/mL (≈ 20.9 µM) | 32 µg/mL (≈ 20.9 µM) | > 100 µM | > 100 µM | 32 µg/mL (≈ 20.9 µM) | 16 µg/mL (≈ 10.5 µM) | > 100 µM | 256 µg/mL (≈ 167 µM) | 32 µg/mL (≈ 20.9 µM) | > 100 µM | 16 µg/mL (≈ 10.5 µM) | 256 µg/mL (≈ 167 µM) | 128 µg/mL (≈ 83.7 µM) | 256 µg/mL (≈ 167 µM) | MBC (Staphylococcus aureus [11]): 32 µg/mL (≈ 20.9 µM); MIC (Enterococcus faecalis [13]): 16 µg/mL (≈ 10.5 µM)
2 | COC(=O)[C@@H]1NC(=O)[C@H]2NC(=O)[C@H](NC(=O)[C@@H]3NC(=O)[C@H]4NC(=O)[C@H](NC(=O)[C@H](n5cc(CO[C@H]6O[C@H](CO)[C@@H](O)[C@H](O)[C@@H]6O)nn5)c5ccc(O)c(c5)Oc5cc4cc(O)c5C)[C@H](O)c4ccc(cc4)Oc4cc3cc(c4O)Oc3ccc(cc3)[C@H]2O)c2ccc(O)c(c2)-c2c(O)cc(O)cc21 | 8 µg/mL (≈ 5.64 µM) | 4 µg/mL (≈ 2.82 µM) | ≥ 46 µM | ≥ 50 µM | 8 µg/mL (≈ 5.64 µM) | 4 µg/mL (≈ 2.82 µM) | 4 µg/mL (≈ 2.82 µM) | 4 µg/mL (≈ 2.82 µM) | ≥ 45 µM | ≥ 45 µM | 16 µg/mL (≈ 11.3 µM) | 4 µg/mL (≈ 2.82 µM) | 10 µM | 256 µg/mL (≈ 180 µM) | 8 µg/mL (≈ 5.64 µM) | 22 µM | 2 µg/mL (≈ 1.41 µM) | 256 µg/mL (≈ 180 µM) | 16 µg/mL (≈ 11.3 µM) | 64 µg/mL (≈ 45.1 µM) | inhibition (Platelet): inactive; MIC (Enterococcus faecalis [13]): 16 µg/mL (≈ 11.3 µM)
3 | COC(=O)[C@@H]1NC(=O)[C@H]2NC(=O)[C@H](NC(=O)[C@@H]3NC(=O)[C@H]4NC(=O)[C@H](NC(=O)[C@H](n5cc(CO[C@H]6O[C@H](CO)[C@@H](O)[C@H](O)[C@H]6NC(C)=O)nn5)c5ccc(O)c(c5)Oc5cc4cc(O)c5C)[C@H](O)c4ccc(cc4)Oc4cc3cc(c4O)Oc3ccc(cc3)[C@H]2O)c2ccc(O)c(c2)-c2c(O)cc(O)cc21 | 4 µg/mL (≈ 2.74 µM) | 2 µg/mL (≈ 1.37 µM) | ≥ 72 µM | 40 µM | 2 µg/mL (≈ 1.37 µM) | 2 µg/mL (≈ 1.37 µM) | 8 µg/mL (≈ 5.48 µM) | 4 µg/mL (≈ 2.74 µM) | 32 µM | ≥ 45 µM | 4 µg/mL (≈ 2.74 µM) | 4 µg/mL (≈ 2.74 µM) | 9 µM | 256 µg/mL (≈ 175 µM) | 8 µg/mL (≈ 5.48 µM) | 8.7 µM | 2 µg/mL (≈ 1.37 µM) | 256 µg/mL (≈ 175 µM) | 16 µg/mL (≈ 11 µM) | 256 µg/mL (≈ 175 µM) | MBC (Staphylococcus aureus [11]): 2 µg/mL (≈ 1.37 µM); inhibition (Platelet): inactive; MIC (Enterococcus faecalis [13]): 8 µg/mL (≈ 5.48 µM)
4 | COC(=O)[C@@H]1NC(=O)[C@H]2NC(=O)[C@H](NC(=O)[C@@H]3NC(=O)[C@H]4NC(=O)[C@H](NC(=O)[C@H](n5cc(CO[C@H]6O[C@H](CO)[C@@H](O[C@H]7O[C@H](CO)[C@@H](O)[C@H](O)[C@H]7O)[C@H](O)[C@H]6O)nn5)c5ccc(O)c(c5)Oc5cc4cc(O)c5C)[C@H](O)c4ccc(cc4)Oc4cc3cc(c4O)Oc3ccc(cc3)[C@H]2O)c2ccc(O)c(c2)-c2c(O)cc(O)cc21 | 2 µg/mL (≈ 1.27 µM) | 1 µg/mL (≈ 0.633 µM) | > 100 µM | 61 µM | 8 µg/mL (≈ 5.06 µM) | 4 µg/mL (≈ 2.53 µM) | 4 µg/mL (≈ 2.53 µM) | 4 µg/mL (≈ 2.53 µM) | 52 µM | > 100 µM | 256 µg/mL (≈ 162 µM) | 2 µg/mL (≈ 1.27 µM) | 16 µM | 256 µg/mL (≈ 162 µM) | 4 µg/mL (≈ 2.53 µM) | 20 µM | 4 µg/mL (≈ 2.53 µM) | 256 µg/mL (≈ 162 µM) | 32 µg/mL (≈ 20.2 µM) | 256 µg/mL (≈ 162 µM) | MBC (Staphylococcus aureus [11]): 256 µg/mL (≈ 162 µM); inhibition (Platelet): Active; MIC (Enterococcus faecalis [13]): 8 µg/mL (≈ 5.06 µM)
5 | COC(=O)[C@@H]1NC(=O)[C@H]2NC(=O)[C@H](NC(=O)[C@@H]3NC(=O)[C@H]4NC(=O)[C@H](NC(=O)[C@H](n5cc(CO[C@H]6O[C@H](COC(C)=O)[C@@H](O[C@H]7O[C@H](COC(C)=O)[C@@H](OC(C)=O)[C@H](OC(C)=O)[C@H]7OC(C)=O)[C@H](OC(C)=O)[C@H]6OC(C)=O)nn5)c5ccc(O)c(c5)Oc5cc4cc(O)c5C)[C@H](O)c4ccc(cc4)Oc4cc3cc(c4O)Oc3ccc(cc3)[C@H]2O)c2ccc(O)c(c2)-c2c(O)cc(O)cc21 | 16 µg/mL (≈ 8.53 µM) | 4 µg/mL (≈ 2.13 µM) | > 100 µM | > 100 µM | 8 µg/mL (≈ 4.27 µM) | 4 µg/mL (≈ 2.13 µM) | 8 µg/mL (≈ 4.27 µM) | 8 µg/mL (≈ 4.27 µM) | > 100 µM | > 100 µM | 4 µg/mL (≈ 2.13 µM) | 1 µg/mL (≈ 0.533 µM) | > 100 µM | 256 µg/mL (≈ 137 µM) | 4 µg/mL (≈ 2.13 µM) | > 100 µM | 1 µg/mL (≈ 0.533 µM) | 256 µg/mL (≈ 137 µM) | 8 µg/mL (≈ 4.27 µM) | 256 µg/mL (≈ 137 µM) | MBC (Staphylococcus aureus [11]): 4 µg/mL (≈ 2.13 µM); MIC (Enterococcus faecalis [13]): 2 µg/mL (≈ 1.07 µM)
6 | COC(=O)[C@@H]1NC(=O)[C@H]2NC(=O)[C@H](NC(=O)[C@@H]3NC(=O)[C@H]4NC(=O)[C@H](NC(=O)[C@H](n5cc(CO[C@H]6O[C@H](CO)[C@@H](O)[C@H](O)[C@H]6O)nn5)c5ccc(O)c(c5)Oc5cc4cc(O)c5C)[C@H](O)c4ccc(cc4)Oc4cc3cc(c4O)Oc3ccc(cc3)[C@H]2O)c2ccc(O)c(c2)-c2c(O)cc(O)cc21 | 4 µg/mL (≈ 2.82 µM) | 4 µg/mL (≈ 2.82 µM) | ≥ 30 µM | 33 µM | 4 µg/mL (≈ 2.82 µM) | 2 µg/mL (≈ 1.41 µM) | 8 µg/mL (≈ 5.64 µM) | 2 µg/mL (≈ 1.41 µM) | 32 µM | ≥ 45 µM | 128 µg/mL (≈ 90.2 µM) | 2 µg/mL (≈ 1.41 µM) | 14 µM | 256 µg/mL (≈ 180 µM) | 4 µg/mL (≈ 2.82 µM) | 16 µM | 2 µg/mL (≈ 1.41 µM) | 256 µg/mL (≈ 180 µM) | 8 µg/mL (≈ 5.64 µM) | 256 µg/mL (≈ 180 µM) | MBC (Staphylococcus aureus [11]): 256 µg/mL (≈ 180 µM); inhibition (Platelet): Active; MIC (Enterococcus faecalis [13]): 4 µg/mL (≈ 2.82 µM)
7 | COC(=O)[C@@H]1NC(=O)[C@H]2NC(=O)[C@H](NC(=O)[C@@H]3NC(=O)[C@H]4NC(=O)[C@H](NC(=O)[C@H](n5cc(CO[C@H]6O[C@H](COC(C)=O)[C@@H](OC(C)=O)[C@H](OC(C)=O)[C@H]6OC(C)=O)nn5)c5ccc(O)c(c5)Oc5cc4cc(O)c5C)[C@H](O)c4ccc(cc4)Oc4cc3cc(c4O)Oc3ccc(cc3)[C@H]2O)c2ccc(O)c(c2)-c2c(O)cc(O)cc21 | 16 µg/mL (≈ 10.1 µM) | 16 µg/mL (≈ 10.1 µM) | > 100 µM | > 100 µM | 16 µg/mL (≈ 10.1 µM) | 8 µg/mL (≈ 5.04 µM) | 16 µg/mL (≈ 10.1 µM) | 8 µg/mL (≈ 5.04 µM) | > 100 µM | > 100 µM | 8 µg/mL (≈ 5.04 µM) | 4 µg/mL (≈ 2.52 µM) | 9.5 µM | 256 µg/mL (≈ 161 µM) | 8 µg/mL (≈ 5.04 µM) | 8.2 µM | 4 µg/mL (≈ 2.52 µM) | 256 µg/mL (≈ 161 µM) | 16 µg/mL (≈ 10.1 µM) | 256 µg/mL (≈ 161 µM) | MBC (Staphylococcus aureus [11]): 8 µg/mL (≈ 5.04 µM); MIC (Enterococcus faecalis [13]): 8 µg/mL (≈ 5.04 µM)

From ChEMBL document CHEMBL1158551, “Click reaction synthesis of carbohydrate derivatives from ristocetin aglycon with antibacterial and antiviral activity” (Bioorg Med Chem Lett, 2010)
